Entries after “also recorded” stand apart in the source; their conditions may differ. Counter-ions that a name gives are not always drawn.
Assays:
Type in all cases: in vivo, Vitis vinifera
[1] = test system: Crimson Seedless grape clusters; experiment: Field study, Example 1: visual rating of red grape coloration, % of berries with marketable color
Method: (§1) A field study was conducted in California to compare the efficacy of S-ABA to 3′-methyl-(S)-ABA in promoting red grape coloration. S-ABA and 3′-methyl-(S)-ABA were formulated as aqueous solutions of the corresponding potassium salt to the desired concentrations with the final pHs being between 6.5 and 7.2. Individual Crimson Seedless grape clusters were selected and tagged, with 20 tagged clusters per treatment. The treatments were applied as cluster-directed sprays using a trigger sprayer at 15 to 20 mL per cluster to ensured good coverage of the grapes. Application of 15 to 20 milliliters per cluster simulates application of about 109 gallons per acre directed at the approximately 40 clusters per vine in a vineyard with 518 vines per acre. Based on these estimates, Applicant determined the approximate grams per acre. The equation is as follows: 20 ml/cluster×40 cluster/vine=800 ml/vine×518 vine/acre=(414,400 ml/acre)/(1000 ml/liter)=414 liters/acre. An estimation of grams per acre was made by multiplying the mg per cluster with 20,720 clusters/acre (40 clusters/vine×518 vines/acre=20,720 clusters/acre).
(§2) Periodically after the treatments, the grape clusters were evaluated for color development by visual ratings over a six-week period. The coloration was graded on a 1 to 8 grading scale, where a rating of 1 has very little or no red color and a rating of 8 has a deep or dark red color. The percentages of berries that reached marketable red coloration for each cluster were averaged and recorded for each treatment. Additionally, representative berries from each treatment group were harvested about four weeks after treatment and analyzed for anthocyanin content.

Crimson Seedless grapes = experiment: Trial, Example 2: visual color rating of grape clusters on a 1 to 8 scale; design: key to Color Ratings: 1 = little/no red color, 8 = deep/dark red color; conditions: for Color Ratings: applied day 0 and day 11, 1 to 8 grading scale
Method: Another trial was conducted in California on Crimson Seedless grapes to compare the efficacy of S-ABA, 3′-methyl-(S)-ABA and 3′-propargyl-(S)-ABA in promoting coloration. All three compounds were formulated as aqueous solutions of the corresponding potassium salt to the desired concentrations, with the final pHs being between 6.5 and 7.2. Individual Crimson Seedless grape clusters were selected and tagged, with 20 tagged clusters per treatment. The solutions were applied as cluster-directed sprays using a trigger sprayer at 15 to 20 milliliters per cluster which ensured good coverage of the grapes. The treatments were applied on day 0 and day 11 of the trial. Periodically during the trial, the grape clusters were evaluated for color development by visual ratings over a six-week period and the coloration was graded on a 1 to 8 grading scale, where a rating of 1 has very little or no red color and a rating of 8 has a deep or dark red color.

[2] = test system: Crimson Seedless grape clusters; experiment: Field study, Example 1: anthocyanin content of berries harvested about four weeks after treatment; conditions: berries harvested about four weeks after treatment
Method: as §1, §2

CC1=CC(=O)CC(C)(C)[C@@]1(O)/C=C/C(C)=C/C(=O)O [S-ABA, K^+ salt, (S)-abscisic acid]
Coloring Ratings, % of the berries with marketable color ([1]; 200 ppm, 3-4 mg/cluster, 60-80 grams/acre, 7 DAT): 41%
Coloring Ratings, % of the berries with marketable color ([1]; 200 ppm, 3-4 mg/cluster, 60-80 grams/acre, 14 DAT): 78%
Coloring Ratings, % of the berries with marketable color ([1]; 200 ppm, 3-4 mg/cluster, 60-80 grams/acre, 27 DAT): 84%
Coloring Ratings, % of the berries with marketable color ([1]; 200 ppm, 3-4 mg/cluster, 60-80 grams/acre, 33 DAT): 88%
Coloring Ratings, % of the berries with marketable color ([1]; 200 ppm, 3-4 mg/cluster, 60-80 grams/acre, 43 DAT): 89%
Coloring Ratings, % of the berries with marketable color ([1]; 400 ppm, 6-8 mg/cluster, 120-160 grams/acre, 7 DAT): 47%
Coloring Ratings, % of the berries with marketable color ([1]; 400 ppm, 6-8 mg/cluster, 120-160 grams/acre, 14 DAT): 80%
Coloring Ratings, % of the berries with marketable color ([1]; 400 ppm, 6-8 mg/cluster, 120-160 grams/acre, 27 DAT): 85%
Coloring Ratings, % of the berries with marketable color ([1]; 400 ppm, 6-8 mg/cluster, 120-160 grams/acre, 33 DAT): 88%
Coloring Ratings, % of the berries with marketable color ([1]; 400 ppm, 6-8 mg/cluster, 120-160 grams/acre, 43 DAT): 91%
time to reach ~90% marketable coloration ([1]; 400 ppm, 6 to 8 mg per cluster): five weeks; also recorded: five or six weeks
Color Ratings (Crimson Seedless grapes; 200 ppm, 3-4 mg/cluster, 60-80 g/acre, 3 DAT): 1
Color Ratings (Crimson Seedless grapes; 200 ppm, 3-4 mg/cluster, 60-80 g/acre, 10 DAT): 2.2
Color Ratings (Crimson Seedless grapes; 200 ppm, 3-4 mg/cluster, 60-80 g/acre, 14 DAT): 2.6
Color Ratings (Crimson Seedless grapes; 200 ppm, 3-4 mg/cluster, 60-80 g/acre, 21 DAT): 4.1
Color Ratings (Crimson Seedless grapes; 200 ppm, 3-4 mg/cluster, 60-80 g/acre, 31 DAT): 5.1
Color Ratings (Crimson Seedless grapes; 200 ppm, 3-4 mg/cluster, 60-80 g/acre, 41 DAT (end of six-week evaluation)): 5.4
Color Ratings (Crimson Seedless grapes; 400 ppm, 6-8 mg/cluster, 120-160 g/acre, 3 DAT): 1
Color Ratings (Crimson Seedless grapes; 400 ppm, 6-8 mg/cluster, 120-160 g/acre, 10 DAT): 2.9
Color Ratings (Crimson Seedless grapes; 400 ppm, 6-8 mg/cluster, 120-160 g/acre, 14 DAT): 3.5
Color Ratings (Crimson Seedless grapes; 400 ppm, 6-8 mg/cluster, 120-160 g/acre, 21 DAT): 4.5
Color Ratings (Crimson Seedless grapes; 400 ppm, 6-8 mg/cluster, 120-160 g/acre, 31 DAT): 5.9
Color Ratings (Crimson Seedless grapes; 400 ppm, 6-8 mg/cluster, 120-160 g/acre, 41 DAT (end of six-week evaluation)): 6.4
red color development in comparison with the untreated control (Crimson Seedless grapes; six-week evaluation period): dose-dependent accelerated red color development
Total Anthocyanin Content ([2]; 3-4 mg/cluster (200 ppm, 15-20 mL)): 73 mg/L
Total Anthocyanin Content ([2]; 6-8 mg/cluster (400 ppm, 15-20 mL)): 83 mg/L
